Results reported in patent US6391564B1, “Methods and compositions utilizing Rad51” (priority 1997, dated 2002).
Where two headings read alike, the source gives them in different places.

Tests used:
LNL8 fibroblasts = test: Immunofluorescent staining of Rad51 foci in nuclei and micronuclei of LNL8 fibroblasts; assay type: cell-based; conditions: human LNL8 fibroblast cultures, non-lethal doses of 5-aza-dC
Excerpt: (§1) Immunofluorescent Staining.
(§2) Digital Imaging Microscopy.

TGR-1 cells [1] = test system: TGR-1 cells
Procedure: To induce DSBs in DNA and recombinational repair, cell cultures were exposed to a ^137CS irradiator at doses of 900 rad and then allowed to recover for various time spans. In another experiment, cells were treated with 10 μM 5-aza-dC for 24 hrs.
Immunofluorescent Staining. Harvested cells were washed and resuspended in PBS. Cell density was adjusted to ˜10^5 cells/ml. 0.5 ml aliquots of this cell suspension were centrifuged onto clean glass slides at 800 rpm for 4 min, using a Shandon Cytospin. Immediately after cytocentrifugation, the preparations were fixed in absolute methanol for 30 min at −20° C. and then rinsed in ice-cold acetone for a few seconds. Following three washes with PBS, the preparations were incubated at 37° C. with rabbit anti-HsRad51 antiserum, diluted 1:100 with PBS, in a humidified incubator for 30 min. For some experiments, the slides were simultaneously labeled with rat anti-HsRad52 antiserum or mouse monoclonal antibody. The slides were then washed in PBS another three times for 10 min each and incubated for 30 min with fluorescein-isothiocyanate (FITC)-conjugated anti-rabbit IaG, appropriately diluted with PBS. Rad52, Gadd45, p53, and RNAPII were detected with rhodamine, conjugated anti-rat IgG or anti-mouse IgG+IgM. After three further washes with PBS, the preparations were counterstained with 1 μg/ml 4,6-diamidino-2-phenylindole (DAPI) in 2×SSC for 5 min. The slides were mounted in 90% glycerol, 0.1 M Tris-HCl, pH 8.0, and 2.3% 1,4-diazobicyclo-2,2,2-octane (DABCO).
(§3) Fluorescence In Situ End Labeling (FISEL). FISEL detects cell death (apoptosis) in situ by quantitating DNA strand breaks in individual nuclei. It uses terminal transferase (TdT) to label the 3′-ends in fragmented genomic DNA with biotinylated nucleotide. 100 μl of reaction mix contain 1 μl (25 Units) TdT (Boehringer Mannheim), 20 μl 5×TdT buffer (supplied with the enyzme), 1 μl 0.5 mM biotin-ll-dUTP, 3 μl 0.5 mM dTTP, and 75 μl ddH2O. Cytological preparations are incubated at 37° C. for 1 hr with this reaction mix. Washing the slides for 3×5 min in PBS is sufficient to terminate the reaction. The incorporated biotin-dUTP is detected with rhodarnine-conjugated avidin.
Digital Imaging Microscopy. Images were taken with a Zeiss epifluorescence microscope equipped with a thermoelectronically cooled charge coupled device (CCD) camera (Photometries CH250), which was controlled by an Apple Macintosh computer. Gray scale source images were captured separately with filter sets for FITC, rhodamine, and DAPI. Gray scale images were pseudocolored and merged using ONCOR Image and ADOBE Photoshop software.

TGR-1 cells [2] = test: Apoptosis by fluorescence in situ end labeling (FISEL) in TGR-1 cells; assay type: cell-based, rat; conditions: After 36 hrs etoposide in culture medium
Procedure: Treatment with etoposide (Sedivy), a drug that inhibits DNA topoisomerase II, is a classic system for inducing apoptosis in cells (Mizumoto, et al., (1994). Mol. Pharmac. 46, 890-895).
as §3

TGR-1 cells [3] = test: Immunofluorescent staining of Rad51 foci in nuclei and micronuclei of TGR-1 cells; assay type: cell-based, rat; conditions: TGR-1 cultures treated with etoposide, FIG. 5D
Excerpt: as §1, §2

[4] = 24 hrs 0.1 μg/ml colcemid, 1 day of recovery
[5] = 24 hrs 0.1 μg/ml colcemid, 2 days of recovery
[6] = 24 hrs 0.1 μg/ml colcemid, 3 days of recovery
[7] = 24 hrs 0.1 μg/ml colcemid, no recovery

Q: How did the “cells displaying MN with focally concentrated Rad51 protein” value (LNL8 fibroblasts) turn out when `Nc1ncn([C@H]2C[C@H](O)[C@@H](CO)O2)c(=O)n1` [5-aza-dC, 5-azadeoxycytidine] was run?
A: 5-10%

Q: Which “colcemid-treated cells arrested at metaphase” value (TGR-1 cells [1]; 24 hrs 0.1 μg/ml colcemid) does the source give for `CN[C@H]1CCc2cc(OC)c(OC)c(OC)c2-c2ccc(OC)c(=O)cc21` [Colcemid, colcemid] here?
A: 185

Q: What about the “Percentage of Cells Showing Rad51+/FISEL+” value (TGR-1 cells [1]; [4]) of the same compound?
A: 1%

Q: What about the “Percentage of Cells Showing Rad51+/FISEL−” value (TGR-1 cells [1]; [4]) of the same compound?
A: 31%

Q: And the “Percentage of Cells Showing Rad51−/FISEL+” value (TGR-1 cells [1]; [4])?
A: 14%

Q: What about the “Percentage of Cells Showing Rad51−/FISEL−” value (TGR-1 cells [1]; [4]) of the same compound?
A: 54%

Q: What about the “Percentage of Cells Showing Rad51+/FISEL+” value (TGR-1 cells [1]; [5]) of the same compound?
A: 6%

Q: What about the “Percentage of Cells Showing Rad51+/FISEL−” value (TGR-1 cells [1]; [5]) of the same compound?
A: 9%

Q: And the “Percentage of Cells Showing Rad51−/FISEL+” value (TGR-1 cells [1]; [5])?
A: 40%

Q: And the “Percentage of Cells Showing Rad51−/FISEL−” value (TGR-1 cells [1]; [5])?
A: 45%

Q: And the “Percentage of Cells Showing Rad51+/FISEL+” value (TGR-1 cells [1]; [6])?
A: 4%

Q: What about the “Percentage of Cells Showing Rad51+/FISEL−” value (TGR-1 cells [1]; [6]) of the same compound?
A: 7%

Q: What about the “Percentage of Cells Showing Rad51−/FISEL+” value (TGR-1 cells [1]; [6]) of the same compound?
A: 46%

Q: What about the “Percentage of Cells Showing Rad51−/FISEL−” value (TGR-1 cells [1]; [6]) of the same compound?
A: 43%

Q: What about the “Percentage of Cells Showing Rad51+/FISEL+” value (TGR-1 cells [1]; [7]) of the same compound?
A: 0%

Q: And the “Percentage of Cells Showing Rad51+/FISEL−” value (TGR-1 cells [1]; [7])?
A: 6%

Q: And the “Percentage of Cells Showing Rad51−/FISEL+” value (TGR-1 cells [1]; [7])?
A: 9%

Q: And the “Percentage of Cells Showing Rad51−/FISEL−” value (TGR-1 cells [1]; [7])?
A: 85%

Q: What about the “induced MN containing very brightly fluorescing Rad51 foci” value (TGR-1 cells [1]; colcemid-treated cells recovered 24 hrs in drug-free medium) of the same compound?
A: over 30%

Q: `COc1cc([C@@H]2c3cc4c(cc3[C@@H](O[C@@H]3O[C@@H]5CO[C@@H](C)O[C@H]5[C@H](O)[C@H]3O)[C@H]3COC(=O)[C@H]23)OCO4)cc(OC)c1O` [etoposide] was tested. Which “cells showing genome fragmentation (FISEL-positive)” value (TGR-1 cells [2]) did it give?
A: half of the cells showed genome fragmentation

Q: What about the “content of induced micronuclei (Rad51 protein, fragmented DNA)” value (TGR-1 cells [3]) of the same compound?
A: contain Rad51 protein
